Assay results from US6825230B2, “Spiro and dispiro 1,2,4-trixolane antimalarials” (Medicines for Malaria Venture MMV, priority 2002, dated 2004).

Columns and labels:
P. berghei ANKA strain [1] = test: Divided 3x3 mg/kg and 3x1 mg/kg po doses in infected mice; format: in vivo, Plasmodium berghei; conditions: for Activity (%): percent reduction of parasitemia vs control on day 4
Summary of the method: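 Male NMRI mice were infected i.v. with 2×10^7 P. berghei-parasitized erythrocytes on day 0, then dosed orally in SSV vehicle on days 1, 2 and 3 post-infection.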

P. berghei ANKA strain [2] = test: Divided 3x10 mg/kg vs single 1x30 mg/kg po dose in infected mice; format: in vivo, Plasmodium berghei; conditions: for Cures 3 × 10 mg/kg p.o. SSV: 10 mg/kg po on days 1, 2, 3; for Cures 3 × 10 mg/kg p.o. SSV / Cures 1 × 30 mg/kg p.o. SSV: cure = survival to day 30 post-infection; for Survival (days) 3 × 10 mg/kg p.o. SSV / Activity (%) 3 × 10 mg/kg p.o. SSV: 10 mg/kg po on days 1, 2, 3 post-infection; for Activity (%) 3 × 10 mg/kg p.o. SSV / Activity (%) 1 × 30 mg/kg p.o. SSV: parasitemia reduction on day 4; for Survival (days) 1 × 30 mg/kg p.o. SSV / Activity (%) 1 × 30 mg/kg p.o. SSV: single 30 mg/kg po on day 1 post-infection; for Cures 1 × 30 mg/kg p.o. SSV: single 30 mg/kg po
Procedure: (§1) Moro NMRI male mice (Fu Albino specific pathogen free) weighing 18±2 g were infected intravenously (i.v.) with 2×10^7 P. berghei ANKA strain-infected erythrocytes from donor mice on day 0 of the experiment. From donor mice with circa 30% parasitemia, heparinized blood was taken and diluted in physiological saline to 10^8 parasitized erythrocytes per ml. An aliquot (0.2 ml) of this suspension was injected i.v. into experimental and control groups of mice. […] Throughout the experiments, mice were kept in groups of three or five animals in Makrolon type II cages in an air-conditioned animal room at 22 to 23° C.
They were administered per os (p.o.) in a total volume of 0.01 ml per gram of mouse. The activity of the compound was determined by a variety of methods outlined in subsequent sections. Survival time was also recorded, and survival to day 30 post-infection was considered to be a cure.
The first experiment conducted consisted of administration of a divided 3×10 mg/kg p.o. dose administered on days 1, 2, and 3 post-infection vs. a single 1×30 mg/kg po dose administered on day 1 post-infection. On day 4 post-infection, blood smears of all animals were prepared and stained with Giemsa. […] Compounds were administered orally in the SSV vehicle.

[3] = system: ANKA strain of P. berghei; test: Single dose STI in vivo screen in infected mice; set-up: species or system Plasmodium berghei; conditions: for Activity (%) 3 mg/kg SSV po / Activity (%) 10 mg/kg SSV po: percent reduction in parasitemia on day 3; for Survival (days) 10 mg/kg SSV po: single 10 mg/kg po in SSV, untreated 6-7 days; for Activity (%) 10 mg/kg SSV po: single 10 mg/kg po in standard suspending vehicle (SSV) on day 1 post-infection
P. berghei ANKA strain [4] = test: Onset of action and recrudescence experiment, single 100 mg/kg po; format: in vivo, Plasmodium berghei; conditions: single 100 mg/kg po (SSV) on day +3 post-infection; recrudescence = >5% parasitemia; followed up to 60 days; groups of five
Procedure: The onset of drug action was determined after a single fixed dose of 100 mg/kg (SSV vehicle) po to groups of five animals on day +3 post-infection (day 0).
as §1

P. berghei ANKA strain [5] = test: Prophylactic activity, single 100 mg/kg po at various times before infection; format: in vivo, Plasmodium berghei; conditions: for Prophylactic Activity (%) 24 h: single 100 mg/kg po 24 h before infection; for Prophylactic Activity (%) 0 h: single 100 mg/kg po at 0 h
Procedure: as §1
Prophylactic activities of the compounds were compared after administering po single dose of 100 mg/kg to different groups of five animals at various times before infection. All groups including an untreated control group, were then infected at the same time. Parasitemia was determined for each animal on day 3 post-infection, and percent of reduction of the level of parasitemia compared to levels for animals given no drug is determined.

[6] = system: ANKA strain of Plasmodium berghei; test: Single dose ED50/ED90/ED99 determination in infected mice; format: in vivo; conditions: single dose po in SSV on day 1 post-infection; parasitemia day 3; nonlinear fitting
Summary of the method: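 Moro SPF or NMRI mice (three per group) infected with P. berghei ANKA were dosed once on day 1 post-infection in SSV (0.5% CMC, 0.5% benzyl alcohol, 0.4% Tween 80, 0.9% NaCl). Parasitemia reduction was scored on day 3; ED values (mg/kg) came from nonlinear fitting.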

[7] = Pharmacokinetics in rats (IV and oral dosing); conditions: in vivo, po, 25 mg/kg
Description: Artesunate is listed as a reference compound.

[8] = system: Schistosoma mansoni adult worms (49-day-old); test: Effect on adult schistosomes (49-day-old) in infected mice; format: in vivo
Procedure: Mice were infected with 100 Schistosoma mansoni cercariae on day 49 post-treatment. Each group was treated per os with OZ compounds at single doses of 200, 400, and 600 mg/kg. Untreated mice served as the control. All groups were killed 4 weeks after treatment and the liver and intestine were removed and separated. The liver and intestine were compressed and alive male and female worms could be seen and counted.

[9] = system: Schistosoma mansoni 21-day-old schistosomules; test: Effect on 21-day-old schistosomules in infected mice; format: in vivo; conditions: single 200 mg/kg per os, 21-day-old schistosomules
Procedure: Mice were infected with 100 Schistosoma mansoni cercariae on day 21 post-treatment. Each group was treated per os with trioxolanes at a single dose of 200 mg/kg. […] All groups were killed 4 weeks after treatment and the liver and intestine were removed and separated. The liver and intestine were compressed and alive male and female worms could be seen and counted. The effect of the compounds was evaluated by mean total and female worm burden.

[10] = 3 × 1 mg/kg p.o. SSV on days 1, 2, 3 post-infection
[11] = 3 × 3 mg/kg p.o. SSV on days 1, 2, 3 post-infection
[12] = parasitemia reduction on day 3 post-infection

Structure (SMILES): OC(c1cc(C(F)(F)F)nc2c(C(F)(F)F)cccc12)C1CCCCN1 (stereo not drawn) [MFQ, mefloquine, reference compound]
- Survival (P. berghei ANKA strain [1]; [10]): 6.2 days
- Activity (%) (P. berghei ANKA strain [1]; [10]): 2%
- Survival (P. berghei ANKA strain [1]; [11]): 12 days
- Activity (%) (P. berghei ANKA strain [1]; [11]): 98%
- Cures 3 × 10 mg/kg p.o. SSV (P. berghei ANKA strain [2]): 0/5
- Survival (days) 3 × 10 mg/kg p.o. SSV (P. berghei ANKA strain [2]): 23.3 days
- Activity (%) 3 × 10 mg/kg p.o. SSV (P. berghei ANKA strain [2]): 99.92%
- Survival (days) 1 × 30 mg/kg p.o. SSV (P. berghei ANKA strain [2]): 20.3 days
- Activity (%) 1 × 30 mg/kg p.o. SSV (P. berghei ANKA strain [2]): 99.94%
- Cures 1 × 30 mg/kg p.o. SSV (P. berghei ANKA strain [2]): 0/5
- Activity (%) 3 mg/kg SSV po ([3]; single 3 mg/kg po in SSV): 9%
- Survival (days) 10 mg/kg SSV po [3]: 17 days
- Activity (%) 10 mg/kg SSV po [3]: 99.11%
- Time of Recrudescence (P. berghei ANKA strain [4]): 28.0 days
- Duration of prophylactic protection (P. berghei ANKA strain [5]; single 100 mg/kg po): 3 days
- Prophylactic Activity (%) 24 h (P. berghei ANKA strain [5]; [12]): 100%
- Prophylactic Activity (%) 48 h (P. berghei ANKA strain [5]; single 100 mg/kg po 48 h before infection, parasitemia reduction on day 3 post-infection): 99.92%
- Prophylactic Activity (%) 72 h (P. berghei ANKA strain [5]; single 100 mg/kg po 72 h before infection, parasitemia reduction on day 3 post-infection): 99.97%
- Prophylactic Activity (%) 0 h (P. berghei ANKA strain [5]; [12]): 100%
- ED50 [6]: 4.0 mg/kg
- ED90 [6]: 5.4 mg/kg
- ED99 [6]: 6.8 mg/kg

Structure (SMILES): C[C@H]1[C@H](OC(=O)CCC(=O)O)O[C@@H]2O[C@@]3(C)CC[C@H]4[C@H](C)CC[C@@H]1[C@@]24OO3 [AS, artesunate, reference compound]
- Rat Oral Bioavailability 25 mg/kg (DHA) [7]: 21%
- Survival (P. berghei ANKA strain [1]; [10]): 6.8 days
- Activity (%) (P. berghei ANKA strain [1]; [10]): 39%
- Survival (P. berghei ANKA strain [1]; [11]): 9.4 days
- Activity (%) (P. berghei ANKA strain [1]; [11]): 78%
- Cures 3 × 10 mg/kg p.o. SSV (P. berghei ANKA strain [2]): 0/5
- Survival (days) 3 × 10 mg/kg p.o. SSV (P. berghei ANKA strain [2]): 11 days
- Activity (%) 3 × 10 mg/kg p.o. SSV (P. berghei ANKA strain [2]): 98.62%
- Survival (days) 1 × 30 mg/kg p.o. SSV (P. berghei ANKA strain [2]): 9 days
- Activity (%) 1 × 30 mg/kg p.o. SSV (P. berghei ANKA strain [2]): 83.83%
- Cures 1 × 30 mg/kg p.o. SSV (P. berghei ANKA strain [2]): 0/5
- Survival (days) 3 mg/kg SSV po ([3]; single 3 mg/kg po in SSV): 8.0 days
- Activity (%) 3 mg/kg SSV po ([3]; single 3 mg/kg po in SSV): 66%
- Survival (days) 10 mg/kg SSV po [3]: 7.0 days
- Activity (%) 10 mg/kg SSV po [3]: 87%
- Time of Recrudescence (P. berghei ANKA strain [4]): 8.6 days
- Prophylactic Activity (%) 24 h (P. berghei ANKA strain [5]; [12]): 6.28%
- Prophylactic Activity (%) 0 h (P. berghei ANKA strain [5]; [12]): 92.44%
- ED50 [6]: 4.7 mg/kg
- ED90 [6]: 19 mg/kg
- ED99 [6]: 60 mg/kg

Structure (SMILES): O=C(O)CC1CCC2(CC1)OOC1(O2)C2CC3CC(C2)CC1C3 (stereo not drawn) [OZ78]
- % reduction of adult worms growth at day 49 after per os application of 200 mg/kg, TWR (%) ([8]; single 200 mg/kg per os, 49-day-old adults, total worm reduction rate): 24%
- Adult worms day 49, per os 200 mg/kg, DEAD WORM (%) ([8]; single 200 mg/kg per os, percentage of dead worm in the liver): 29%
- % reduction of adult worms growth at day 49 after per os application of 400 mg/kg, TWR (%) ([8]; single 400 mg/kg per os, 49-day-old adults, total worm reduction rate): 0%
- Adult worms day 49, per os 400 mg/kg, DEAD WORM (%) ([8]; single 400 mg/kg per os, percentage of dead worm in the liver): 17%
- % reduction of adult worms growth at day 49 after per os application of 600 mg/kg, TWR (%) ([8]; single 600 mg/kg per os, 49-day-old adults, total worm reduction rate): 0%
- Adult worms day 49, per os 600 mg/kg, DEAD WORM (%) ([8]; single 600 mg/kg per os, percentage of dead worm in the liver): 14%
- Time of Recrudescence (P. berghei ANKA strain [4]): 11.2 days
- % reduction of schistosomule growth at day 21 after per os application of 200 mg/kg, FWR (%) ([9]; female worm reduction rate): 87%
- % reduction of schistosomule growth at day 21 after per os application of 200 mg/kg, TWR (%) ([9]; total worm reduction rate): 82%
- ED90 [6]: 9.1 mg/kg
- ED99 [6]: 17 mg/kg
